Data published in patent US7470678B2, “Diphenylazetidinone derivatives for treating disorders of the lipid metabolism” (AstraZeneca AB, priority 2002, dated 2008).

Legend:
Caco-2 cells = assay: Absorption in a Caco-2 cells model; type: in vitro ADME
Method: (§1) The absorption of the compounds of formula (I) was tested in a Caco-2 cells model (Gastroenterology 1989, 96, 736).

[1] = Absorption in a Caco-2 cells model; type: in vitro ADME; details: human, read-out: Apparent partition coefficient, Papp
Method: as §1

| SMILES | Apparent partition coefficient; Papp [cm/s] (Caco-2 cells) | absorption compared with ezetimibe (Caco-2 cells; compared with ezetimibe) | Papp [1] [×10⁻⁶ cm/s] |
| --- | --- | --- | --- |
| O=C(O)CNC(=O)COc1ccc(C2C(SCC(O)c3ccc(F)cc3)C(=O)N2c2ccccc2)cc1 [Example 24, 3-(R)-4-(R)-1-(Phenyl)-3-[2-(4-fluorophenyl)-2-hydroxyethylsulphany[-4-{4-[N-(carboxymethyl)carbamoylmethoxy]phenyl}azetidin-2-one] | 0.24 × 10^−06 cm/s | much lower absorption |  |
| O=C1[C@H](CC[C@H](O)c2ccc(F)cc2)[C@@H](c2ccc(O)cc2)N1c1ccc(F)cc1 [Ezetimibe, reference compound] |  |  | 21 |
